In paper PMC12188386, “Selective CBP/EP300 Bromodomain Inhibitors: Novel Epigenetic Tools to Counter TNF-α-Driven Inflammation” (JACS Au, 2025):
Like-named read-outs stand apart in the source and are kept apart here.

Tests used:
BRD4(1)-BRD = conditions: cited from earlier work
CBP-BRD [1] = target: CBP-BRD; parameters: method as in Pegg et al., 2017; Brooks et al., 2017; conditions: SPR, ref Pegg et al., 2017, Brooks et al., read-out: Affinity to CBP-BRD, Kd; cited from earlier work
kinetic solubility = format: physicochemical; conditions: PBS pH 7.4, 37°C, 90 min; ± st. dev. between technical replicates
Description: Starting from an initial concentration of 100, 50 or 20 µM, a 2-fold serial dilution of the compound (10 mM stock in DMSO) was prepared in a mixture of ACN/Buffer (PBS, pH = 7.4) 2:8, with 1% DMSO. 350 µL was transferred to a 96-Well Plate (Greiner, UV-star) then UV absorption (240-400 nm, 10 nm steps) was measured. The absorption was blank-corrected and plotted against concentration. The wavelength (λ) providing the best fitting straight line […]
(§1) was used as the calibration curve. To obtain saturated solutions of the compounds of interest, in duplicates 4.4 µL of a 10 or 5 mM stock in DMSO was added to 436 µL Buffer (PBS, pH = 7.4), to give a final concentration of 100 or 50 µM. Samples were incubated on a shaker (500 rpm) at 37°C for 90 minutes and then filtered (Millex-GV 13 mm, 0.22 µm). 304 µL of the filtrate was mixed with 76 µL of acetonitrile on a dilution plate, from which 350 µL was transferred to a UV-plate and UV-absorption was read using a SpectraMax M5 (Molecular devices). The absorbance was blank-corrected and compared to the calibration curve to […]
(§2) solubility. The wavelengths used for the calibration curve are available in Table S4.
(§3) Based on the known density of 12.5 % CAPTISOL® solution (d = 1.05755 g/mL at 25 °C), the precise weight of the resulting solution and so the required amount of water by weight was calculated. The water was added portion wise with agitation, vortexing and sonication cycles in between additions. The saturated solutions were then filtered (Millex-GV 13 mm, 0.22 µm). In duplicates, aliquots of the filtrates were taken and diluted with blank 12.5 % CAPTISOL® water solution in either a 1:14 (higher sol. compounds) or 1:7 (lower sol. compounds) ratio, 350 µL was transferred to a 96-Well Plate (Greiner, UV-star) then UV absorption (240-400 nm, 10 nm steps) was measured using a SpectraMax M5 (Molecular devices). The absorption was blank-corrected, compared to the calibration curve obtained during the solubility measurement method above and finally corrected for the dilution ratio to obtain the compound concentration in the saturated 12.5 % CAPTISOL® solution. The calculated concentrations are available in Table S4.
(§4) BROMOscan™ assays (provided by Eurofins DiscoverX, US)1,2 […]
coli host derived from the BL21 strain. E. coli were grown to log-phase and infected with T7 phage from a frozen stock (multiplicity of infection = 0.4) and incubated with shaking at 32°C until lysis (90-150 minutes). The lysates were centrifuged (5,000 x g) and filtered (0.2µm) to remove cell debris. Streptavidin-coated magnetic beads were treated with biotinylated small molecule or acetylated peptide ligands for 30 minutes at room temperature to generate affinity resins for bromodomain assays. The liganded beads were blocked with excess biotin and washed with blocking buffer (SeaBlock (Pierce), 1 % BSA, 0.05 % Tween 20, 1 mM DTT) to remove unbound ligand and to reduce non specific phage binding. Binding reactions were assembled by combining bromodomains, liganded affinity beads, and test compounds (see […]
Sodium azide, 7.4 mM DTT). All reactions were performed in polypropylene 384-well plates in a final volume of 0.02 mL. The assay plates were incubated at room temperature with […]
20). The beads were then resuspended in elution buffer (1x PBS, 0.05% Tween 20, 2 µM non-

MRC5 cells = assay: viability assay (resazurin); format: cell-based; conditions: three-day treatment, concentration resulting in 70 % viability
Description: MRC5 (2x10^3 cells/well) or THP-1 (8x10^3 cells/well) cells were plated onto 96 well plates and treated with compounds at a final DMSO concentration of 0.5 % (MRC5) or 0.1 % (THP-1).
After 3 days of treatment, resazurin (Acros Organics) was added at a final concentration of 86 μ and incu ated for 2h15 (MRC5) or 3 h (THP-1). Fluorescence (ex. 560 nm, em. 590 nm) was read using a SpectraMax M5 (Molecular devices). GI30 values were calculated as the compound concentration resulting in 70 % viability compared to DMSO treated controls using a nonlinear regression fit using GraphPad Prism with the following equation: (Y=Bottom + (100-Bottom)/(1+(IC50/X)^HillSlope)). […]
After 1.5 h, mice were injected with 10 µL of the prepared CAPTISOL […]
foodpad and also intraperitoneally (for i.p. injection, the 10 µL of CAPTISOL solution was diluted to a final volume of 100 µL using PBS). Organs were collected 5 h after TNF-α […]
LEGENDPlexTM assays (Mouse Pro-inflammatory Chemokine Panel and Mouse Inflammation Panel; Biolegend) were performed to monitor cytokine/chemokine expression. Briefly, popliteal LNs were collected and carefully disrupted in […] ice-cold phosphate buffer, minimizing cell rupture. The suspension was centrifuged at 1,500 rpm for 5 min, and the […]

[2] = test system: TNF-α-induced IL-8 secretion from THP-1 cells; assay: cytokine protein measurement (LEGENDPlex); format: cell-based, human; conditions: 10 ng/mL TNF-α, 1 μM compound
Description: For cytokine expression determination, 5x10^5 THP-1 cells were plated on 12 well plates the day prior to treatment with 10 ng/mL recombinant human TNF -α (aa 77-233) protein (R&D systems, 10291 -TA) and compounds at a final concentration of 0.1 % DMSO. In all cases, total […]
Cytokine protein measurements
THP-1 cells were plated and treated as for the quantitative RT -PCR, then the cell culture medium was harvested by pelleting the cells (300g, 3min) and taking the supernatant .
Cytokine protein concentrations were determined using the LEGENDPlexTM Human Inflammation Panel 1 (BioLegend) assay with 25 µL of culture medium following the manufacturer’s instructi ns. amp es were ana zed f w c t metr n an rtessa Biosciences), and data was analyzed using LEGENDPlex software (BioLegend).

[3] = test system: TNF-α-induced cytokine expression in THP-1 cells; assay: cytokine mRNA expression by RT-qPCR; format: cell-based, human; conditions: 1 h co-treatment of THP-1 cells with 10 ng/mL TNF-α and 1 μM compound
Description: For cytokine expression determination, 5x10^5 THP-1 cells were plated on 12 well plates the day prior to treatment with 10 ng/mL recombinant human TNF -α (aa 77-233) protein (R&D systems, 10291 -TA) and compounds at a final concentration of 0.1 % DMSO. In all cases, total
RNA was extracted using the NucleoSpin® RNA kit (Machery -Nagel) and used for cDNA synthesis with the High -Capacity cDNA Reverse Transcription kit (Applied Biosystems). RT-qPCR reactions were performed using PowerSYBR™ green PCR Master Mix (Applied Biosystems) and a LightCycler® 480 (Roche). cDNA was denatured for 10 min at 95 °C followed by 40 cycles of 15 s at 95 °C and 1 min at 60 °C. Cp values were determined as the maximum of the second derivative and target gene expression was compared to that of hprt from the same sample using the 2-ΔCp method. Gene expression was then normalized to the average of the control samples from the same day, or all biological replicates. […]

[4] = test system: immune cell recruitment to the popliteal lymph node; assay: TNF-α induced inflammation model, flow cytometry of pLN; format: in vivo, mouse; conditions: mice, flow cytometry 5 h post-injection of rmTNF-α, vs control group
CBP-BRD [5] = conditions: TR-FRET; ref Crawford et al., 2016; read-out: Affinity to CBP-BRD, IC50 (Published); cited from earlier work
[6] = concentration in saturated 12.5% CAPTISOL solution; format: physicochemical; conditions: filtered 12.5 w/v% CAPTISOL in water, st. dev. between technical replicates (n=2)
Description: as §1, §2
Sample preparation in CAPTISOL® […]
as §3, with “lower solubility (2) compounds respectively in a 12.5 w/v% CAPTISOL® solution in water. In a precisely tared vial, required amounts of compounds and CAPTISOL® were weighed out as solids. Based” for “Based”
as §4
coli host derived from the BL21 strain. […]

CBP-BRD [7] = conditions: ITC; ref Picaud et al., 2015; Popp et al., 2016; read-out: Affinity to CBP-BRD, Kd; cited from earlier work

CO[C@H]1CC[C@H](n2c([C@@H]3CCCC(=O)N3c3ccc(F)c(F)c3)nc3cc(-c4c(C)noc4C)ccc32)CC1 [CCS1477]
Sel. over BRD4(1)-BRD (BRD4(1)-BRD; ref Pegg et al., 2017, Brooks et al.): 130 fold | Kd (CBP-BRD [1]): 1.7 nM

CC(=O)N1CCc2c(c(Nc3ccc(-c4cnn(C)c4)cc3F)nn2[C@H]2CCOC2)C1 [GNE-272, reference compound]
Kin. Sol. (kinetic solubility): 75.1 ± 1.0 µM | GI30 (MRC5 cells): > 10000 nM | TNF-α-induced IL-8 protein secretion [2]: significantly reducing its TNF-α-induced secretion | TNF-α-induced expression of il1β, il8, mcp-1 and tnf-α (mRNA) [3]: inhibited expression to a greater extent than the less potent but more soluble inhibitor 5 | recruitment of lymphocytes (T and B cells), dendritic cells and neutrophils to the pLN [4]: significantly inhibited the recruitment of lymphocytes | IC50 (CBP-BRD [5]): 20 nM | Conc. in 12.5% Captisol sol. [6]: 715 ± 12 µM

CCC(=O)N1CCOc2c(cc(-c3ccc(OC)c(OC)c3)cc2OC[C@H]2CCCN(C)C2)C1 [I-CBP112]
Sel. over BRD4(1)-BRD (BRD4(1)-BRD; ref Picaud et al., 2015, Popp et al., 2016): 37 fold | Kd (CBP-BRD [7]): 151 nM
